# Measured values from the supplement of paper PMC9663587.
# Tests used:
# THZ531 = compound: CN(C)C/C=C/C(=O)Nc1ccc(C(=O)N2CCC[C@@H](Nc3ncc(Cl)c(-c4c[nH]c5ccccc45)n3)C2)cc1 [THZ531]; assay: increase in dead-cell fraction, 72 h; higher = more death;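 further: breast cancer cell lines in 384-well plates, stained with Hoechst plus LIVE/DEAD far red dye and imaged, cells above an LDR intensity threshold counted dead, Hoechst-negative corpses included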
# LEE011/Ribociclib [1] = compound: T1, CN(C)C(=O)c1cc2cnc(Nc3ccc(N4CCNCC4)cn3)nc2n1C1CCCC1 [LEE011/Ribociclib]; assay: as above
# THZ1 = compound: CN(C)C/C=C/C(=O)Nc1ccc(C(=O)Nc2cccc(Nc3ncc(Cl)c(-c4c[nH]c5ccccc45)n3)c2)cc1 [THZ1]; assay: as above
# YKL-5-124 = compound: C=CC(=O)Nc1ccc(C(=O)Nc2[nH]nc3c2CN(C(=O)N[C@H](CN(C)C)c2ccccc2)C3(C)C)cc1 [YKL-5-124]; assay: as above
# Flavopiridol = compound: CN1CC[C@H](c2c(O)cc(O)c3c(=O)cc(-c4ccccc4Cl)oc23)[C@H](O)C1 [Flavopiridol]; assay: as above
# [2] = compound: CCc1cnn2c(NCc3ccc[n+]([O-])c3)cc(N3CCCC[C@H]3CCO)nc12; assay: as above
# BSJ-03-123 = compound: CC(=O)c1c(C)c2cnc(Nc3ccc(N4CCN(CCOCCOCCOCCNC(=O)COc5cccc6c5C(=O)N(C5CCC(=O)NC5=O)C6=O)CC4)cn3)nc2n(C2CCCC2)c1=O [BSJ-03-123]; assay: as above
# Neratinib/HKI272 = compound: CCOc1cc2ncc(C#N)c(Nc3ccc(OCc4ccccn4)c(Cl)c3)c2cc1NC(=O)/C=C/CN(C)C [Neratinib/HKI272]; assay: as above
# [3] = compound: CCN1CCN(Cc2ccc(Nc3ncc(F)c(-c4cc(F)c5nc(C)n(C(C)C)c5c4)n3)nc2)CC1; assay: as above
# [4] = compound: CC(=O)c1c(C)c2cnc(Nc3ccc(N4CCNCC4)cn3)nc2n(C2CCCC2)c1=O; assay: as above
# LEE011/Ribociclib [5] = compound: T1, LEE011/Ribociclib
# Doxorubicin = compound: COc1cccc2c1C(=O)c1c(O)c3c(c(O)c1C2=O)C[C@@](O)(C(=O)CO)C[C@@H]3O[C@H]1C[C@H](N)[C@H](O)[C@H](C)O1 [Doxorubicin]
# [6] = compound: CCc1cnn2c(NCc3ccc[n+]([O-])c3)cc(N3CCCC[C@H]3CCO)nc12
# [7] = compound: Cc1nn(C)c(COc2ccc(N3CCN(S(=O)(=O)N(C)C)CC3)cc2)c1-c1cccc2c(CCCOc3cccc4ccccc34)c(C(=O)O)n(CCN3CCOCC3)c12
# Pictilisib/GDC0941 = compound: CS(=O)(=O)N1CCN(Cc2cc3nc(-c4cccc5[nH]ncc45)nc(N4CCOCC4)c3s2)CC1 [Pictilisib/GDC0941]
# Ceritinib/LDK378 = compound: Cc1cc(Nc2ncc(Cl)c(Nc3ccccc3S(=O)(=O)C(C)C)n2)c(OC(C)C)cc1C1CCNCC1 [Ceritinib/LDK378]
# 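Wherever GR50, 72 h is given: breast cancer and non-malignant breast epithelial cell lines, Deep Dye Drop or Dye Drop imaging, nine half-log doses, GR normalized to time-zero plates and DMSO-only controls.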
cell line,measurement,setting,value
MDAMB361,increase in dead-cell fraction,THZ531; 0.0001 µM,-0.004
same,increase in dead-cell fraction,THZ531; 0.0003162 µM,-0.0021
same,increase in dead-cell fraction,THZ531; 0.001 µM,0.0045
same,increase in dead-cell fraction,THZ531; 0.003162 µM,-0.0062
same,increase in dead-cell fraction,THZ531; 0.01 µM,-0.0039
same,increase in dead-cell fraction,THZ531; 0.03162 µM,0.0484
same,increase in dead-cell fraction,THZ531; 0.1 µM,0.454
same,increase in dead-cell fraction,THZ531; 0.3162 µM,0.219
same,increase in dead-cell fraction,THZ531; 1 µM,0.106
same,increase in dead-cell fraction,LEE011/Ribociclib [1]; 0.001 µM,0.0114
same,increase in dead-cell fraction,LEE011/Ribociclib [1]; 0.003162 µM,0.0106
same,increase in dead-cell fraction,LEE011/Ribociclib [1]; 0.01 µM,0.009
same,increase in dead-cell fraction,LEE011/Ribociclib [1]; 0.03162 µM,0.0147
same,increase in dead-cell fraction,LEE011/Ribociclib [1]; 0.1 µM,0.0129
same,increase in dead-cell fraction,LEE011/Ribociclib [1]; 0.3162 µM,0.0218
same,increase in dead-cell fraction,LEE011/Ribociclib [1]; 1 µM,0.0159
same,increase in dead-cell fraction,LEE011/Ribociclib [1]; 3.162 µM,0.0012
same,increase in dead-cell fraction,LEE011/Ribociclib [1]; 10 µM,0.0018
same,increase in dead-cell fraction,THZ1; 0.0001 µM,-0.0046
same,increase in dead-cell fraction,THZ1; 0.0003162 µM,-0.0085
same,increase in dead-cell fraction,THZ1; 0.001 µM,-0.0074
same,increase in dead-cell fraction,THZ1; 0.003162 µM,0.0099
same,increase in dead-cell fraction,THZ1; 0.01 µM,0.016
same,increase in dead-cell fraction,THZ1; 0.03162 µM,0.0299
same,increase in dead-cell fraction,THZ1; 0.1 µM,0.166
same,increase in dead-cell fraction,THZ1; 0.3162 µM,0.246
same,increase in dead-cell fraction,THZ1; 1 µM,0.186
same,increase in dead-cell fraction,YKL-5-124; 0.001 µM,0.0281
same,increase in dead-cell fraction,YKL-5-124; 0.003162 µM,0.0171
same,increase in dead-cell fraction,YKL-5-124; 0.01 µM,0.0264
same,increase in dead-cell fraction,YKL-5-124; 0.03162 µM,0.0267
same,increase in dead-cell fraction,YKL-5-124; 0.1 µM,0.0421
same,increase in dead-cell fraction,YKL-5-124; 0.3162 µM,0.0191
same,increase in dead-cell fraction,YKL-5-124; 1 µM,0.0241
same,increase in dead-cell fraction,YKL-5-124; 3.162 µM,0.0411
same,increase in dead-cell fraction,YKL-5-124; 10 µM,0.371
same,increase in dead-cell fraction,Flavopiridol; 0.0001 µM,0.0029
same,increase in dead-cell fraction,Flavopiridol; 0.0003162 µM,-0.0069
same,increase in dead-cell fraction,Flavopiridol; 0.001 µM,-0.0039
same,increase in dead-cell fraction,Flavopiridol; 0.003162 µM,0.0101
same,increase in dead-cell fraction,Flavopiridol; 0.01 µM,0.0075
same,increase in dead-cell fraction,Flavopiridol; 0.03162 µM,0.0039
same,increase in dead-cell fraction,Flavopiridol; 0.1 µM,-0.0034
same,increase in dead-cell fraction,Flavopiridol; 0.3162 µM,0.0273
same,increase in dead-cell fraction,Flavopiridol; 1 µM,0.0899
same,increase in dead-cell fraction,[2]; 0.0001 µM,0.0019
same,increase in dead-cell fraction,[2]; 0.0003162 µM,-0.0027
same,increase in dead-cell fraction,[2]; 0.001 µM,-0.0041
same,increase in dead-cell fraction,[2]; 0.003162 µM,0.0003
same,increase in dead-cell fraction,[2]; 0.01 µM,0.0259
same,increase in dead-cell fraction,[2]; 0.03162 µM,0.303
same,increase in dead-cell fraction,[2]; 0.1 µM,0.148
same,increase in dead-cell fraction,[2]; 0.3162 µM,0.14
same,increase in dead-cell fraction,[2]; 1 µM,0.153
same,increase in dead-cell fraction,BSJ-03-123; 0.001 µM,0.0068
same,increase in dead-cell fraction,BSJ-03-123; 0.003162 µM,0.0047
same,increase in dead-cell fraction,BSJ-03-123; 0.01 µM,0.0008
same,increase in dead-cell fraction,BSJ-03-123; 0.03162 µM,0.006
same,increase in dead-cell fraction,BSJ-03-123; 0.1 µM,0.0093
same,increase in dead-cell fraction,BSJ-03-123; 0.3162 µM,0.0131
same,increase in dead-cell fraction,BSJ-03-123; 1 µM,0.0189
same,increase in dead-cell fraction,BSJ-03-123; 3.162 µM,0.0054
same,increase in dead-cell fraction,BSJ-03-123; 10 µM,0.0713
same,increase in dead-cell fraction,Neratinib/HKI272; 0.0003162 µM,0.0068
same,increase in dead-cell fraction,Neratinib/HKI272; 0.001 µM,0.0063
same,increase in dead-cell fraction,Neratinib/HKI272; 0.003162 µM,0.028
same,increase in dead-cell fraction,Neratinib/HKI272; 0.01 µM,0.0198
same,increase in dead-cell fraction,Neratinib/HKI272; 0.03162 µM,0.0227
same,increase in dead-cell fraction,Neratinib/HKI272; 0.1 µM,0.0339
same,increase in dead-cell fraction,Neratinib/HKI272; 0.3162 µM,0.0406
same,increase in dead-cell fraction,Neratinib/HKI272; 1 µM,0.105
same,increase in dead-cell fraction,Neratinib/HKI272; 3.162 µM,0.435
same,increase in dead-cell fraction,[3]; 0.001 µM,-0.0026
same,increase in dead-cell fraction,[3]; 0.003162 µM,-0.0006
same,increase in dead-cell fraction,[3]; 0.01 µM,0.0107
same,increase in dead-cell fraction,[3]; 0.03162 µM,0.0026
same,increase in dead-cell fraction,[3]; 0.1 µM,0.0066
same,increase in dead-cell fraction,[3]; 0.3162 µM,0.0052
same,increase in dead-cell fraction,[3]; 1 µM,0.0161
same,increase in dead-cell fraction,[3]; 3.162 µM,0.0884
same,increase in dead-cell fraction,[3]; 10 µM,0.172
same,increase in dead-cell fraction,[4]; 0.0003162 µM,0.0032
same,increase in dead-cell fraction,[4]; 0.001 µM,-0.0062
same,increase in dead-cell fraction,[4]; 0.003162 µM,-0.002
same,increase in dead-cell fraction,[4]; 0.01 µM,0.0022
same,increase in dead-cell fraction,[4]; 0.03162 µM,0.0148
same,increase in dead-cell fraction,[4]; 0.1 µM,0.0157
same,increase in dead-cell fraction,[4]; 0.3162 µM,0.0051
same,increase in dead-cell fraction,[4]; 1 µM,0.0076
same,increase in dead-cell fraction,[4]; 3.162 µM,0.0191
same,"GR50, 72 h",LEE011/Ribociclib [5],< 0.001 µM
same,"GR50, 72 h",Doxorubicin,0.0123 µM
same,"GR50, 72 h",[6],0.0118 µM
same,"GR50, 72 h",[7],> 10 µM
same,"GR50, 72 h",Pictilisib/GDC0941,0.0792 µM
same,"GR50, 72 h",Ceritinib/LDK378,0.266 µM
